The results in this text go back to patent publication US20210214560A1, “COMPOUND, COLORING COMPOSITION, INK, TONER, COLORING RESIN COMPOSITION, AND COMPOSITION FOR DYEING FIBER” (FUJIFILM Corporation, priority 2018, published 2021).

The first data set can be described thus: Evaluation of heat stability (heat resistance), powder heated at 180° C. for 5 minutes. It counts as physicochemical. As to conditions: oven 180° C. for 5 minutes, A/A0×100, absorbance in tetrahydrofuran. Here is the method:
Heat stability of each compound was evaluated by the following procedure. 10 mg of the powder of each compound was dissolved in 500 mL of tetrahydrofuran, and the absorption spectrum was measured to obtain a reference absorbance (A0). On the other hand, 10 mg of the powder of each compound was weighed in a 4 cm square aluminum cup, placed in an oven, and heated at 180° C. for 5 minutes. The entire amount of the powder after heating was dissolved in 500 mL of tetrahydrofuran, and the absorption spectrum was measured to obtain an absorbance (A) after the heating test. The residual rate of each compound was calculated by the following expression to evaluate heat stability.
Residual rate of compound (%)=A/A0×100
For the compound `CC(C)(C)C1(C)Nc2cccc3c(N=Nc4ccc(N=Nc5ccccc5Cl)c5ccccc45)ccc(c23)N1` (centres unmarked) [(1-8)], the “Residual rate of compound” value is reported as 81%.

Turning to `CCCC1(C)Nc2cccc3c(N=Nc4ccc(N=Nc5ccccc5Cl)c5ccccc45)ccc(c23)N1` (centres unmarked) [Compound (1-3)], the “Residual rate of compound” value came to 82%.

Regarding `CC1(C)Nc2cccc3c(N=Nc4ccc(N=Nc5ccccc5Br)c5ccccc45)ccc(c23)N1` [(1-34)], the “Residual rate of compound” value was 74%.

Regarding `CCCCC(CC)C(=O)OCC1(C)Nc2cccc3c(N=Nc4ccc(N=Nc5ccccc5Cl)c5ccccc45)ccc(c23)N1` (centres unmarked) [(1-20)], the “Residual rate of compound” value worked out at 84%.

`CC(C)NC(=O)OCC1(C)Nc2cccc3c(N=Nc4ccc(N=Nc5ccccc5Cl)c5ccccc45)ccc(c23)N1` (centres unmarked) [(1-21)]: the “Residual rate of compound” value came out at 84%.

With `CC1(C)Nc2cccc3c(N=Nc4ccc(N=Nc5ccccc5Cl)c5ccccc45)ccc(c23)N1` [(1-1)], the “Residual rate of compound” value stood at 85%.

In the case of `CC1(C)Nc2cccc3c(N=Nc4ccc(N=Nc5ccccc5C(=O)c5ccccc5)c5ccccc45)ccc(c23)N1` [(1-59)], the “Residual rate of compound” value is given as 82%.

As to `CC1(CC(N)=O)Nc2cccc3c(N=Nc4ccc(N=Nc5ccccc5Cl)c5ccccc45)ccc(c23)N1` (centres unmarked) [(1-62)], the “Residual rate of compound” value stood at 74%.

Take `CC(C)C1(C)Nc2cccc3c(N=Nc4ccc(N=Nc5ccccc5Cl)c5ccccc45)ccc(c23)N1` (centres unmarked) [(1-4)]: the “Residual rate of compound” value came out at 84%.

As to `CCCCCC1(C)Nc2cccc3c(N=Nc4ccc(N=Nc5ccccc5Cl)c5ccccc45)ccc(c23)N1` (centres unmarked) [(1-9)], the “Residual rate of compound” value came out at 84%.

Regarding `CC1(C)Nc2cccc3c(N=Nc4ccc(N=Nc5ccccc5F)c5ccccc45)ccc(c23)N1` [(1-31)], the “Residual rate of compound” value is reported as 90%.

Take `CC1(Cc2ccccc2)Nc2cccc3c(N=Nc4ccc(N=Nc5ccccc5Cl)c5ccccc45)ccc(c23)N1` (centres unmarked) [(1-64)]: the “Residual rate of compound” value came out at 73%.

Regarding `CC1(CC#N)Nc2cccc3c(N=Nc4ccc(N=Nc5ccccc5Cl)c5ccccc45)ccc(c23)N1` (centres unmarked) [(1-61)], the “Residual rate of compound” value was 77%.

As to `CC1(C)Nc2cccc3c(N=Nc4ccc(N=Nc5cccc(F)c5)c5ccccc45)ccc(c23)N1` [Comparative compound A, reference compound], the “Residual rate of compound” value amounted to 63%.

With `CC1(C)Nc2cccc3c(N=Nc4ccc(N=Nc5ccc(F)cc5)c5ccccc45)ccc(c23)N1` [Comparative compound B, reference compound], the “Residual rate of compound” value is given as 64%.

A further data set is described as follows: Evaluation of maximum absorption wavelength (absorption spectrum in tetrahydrofuran solution). As to conditions: 1×10^−6 mol/L, optical path length 10 mm (Table 7). The data set is classed as physicochemical.
For the compound `CC(C)(C)C1(C)Nc2cccc3c(N=Nc4ccc(N=Nc5ccccc5Cl)c5ccccc45)ccc(c23)N1` (centres unmarked) [(1-8)], the Absorption maximum wavelength worked out at 631 nm and the “Molar light absorption coefficient” value is listed as 35,200 L · mol^−1 · cm^−1.

`CCCC1(C)Nc2cccc3c(N=Nc4ccc(N=Nc5ccccc5Cl)c5ccccc45)ccc(c23)N1` (centres unmarked) [Compound (1-3)]: the Absorption maximum wavelength was found to be 629 nm and the “Molar light absorption coefficient” value is given as 34,400 L · mol^−1 · cm^−1.

In the case of `CC1(C)Nc2cccc3c(N=Nc4ccc(N=Nc5ccccc5Br)c5ccccc45)ccc(c23)N1` [(1-34)], the Absorption maximum wavelength is 621 nm and the “Molar light absorption coefficient” value is on record as 32,800 L · mol^−1 · cm^−1.

For the compound `CCCCC(CC)C(=O)OCC1(C)Nc2cccc3c(N=Nc4ccc(N=Nc5ccccc5Cl)c5ccccc45)ccc(c23)N1` (centres unmarked) [(1-20)], the Absorption maximum wavelength was 623 nm and the “Molar light absorption coefficient” value was 33,800 L · mol^−1 · cm^−1.

Turning to `CC(C)NC(=O)OCC1(C)Nc2cccc3c(N=Nc4ccc(N=Nc5ccccc5Cl)c5ccccc45)ccc(c23)N1` (centres unmarked) [(1-21)], the Absorption maximum wavelength came out at 623 nm and the “Molar light absorption coefficient” value is 33,900 L · mol^−1 · cm^−1.

Consider `CC1(C)Nc2cccc3c(N=Nc4ccc(N=Nc5ccccc5Cl)c5ccccc45)ccc(c23)N1` [(1-1)], for which the Absorption maximum wavelength turned out to be 624 nm and the “Molar light absorption coefficient” value is reported as 34,500 L · mol^−1 · cm^−1.

Regarding `CC1(C)Nc2cccc3c(N=Nc4ccc(N=Nc5ccccc5C(=O)c5ccccc5)c5ccccc45)ccc(c23)N1` [(1-59)], the Absorption maximum wavelength came out at 639 nm and the “Molar light absorption coefficient” value is given as 35,700 L · mol^−1 · cm^−1.

Take `CC1(CC(N)=O)Nc2cccc3c(N=Nc4ccc(N=Nc5ccccc5Cl)c5ccccc45)ccc(c23)N1` (centres unmarked) [(1-62)]: the Absorption maximum wavelength is 607 nm and the “Molar light absorption coefficient” value is recorded as 34,200 L · mol^−1 · cm^−1.

In the case of `CC(C)C1(C)Nc2cccc3c(N=Nc4ccc(N=Nc5ccccc5Cl)c5ccccc45)ccc(c23)N1` (centres unmarked) [(1-4)], the Absorption maximum wavelength is 631 nm and the “Molar light absorption coefficient” value is given as 33,000 L · mol^−1 · cm^−1.

On to `CCCCCC1(C)Nc2cccc3c(N=Nc4ccc(N=Nc5ccccc5Cl)c5ccccc45)ccc(c23)N1` (centres unmarked) [(1-9)], for which the Absorption maximum wavelength is listed as 629 nm and the “Molar light absorption coefficient” value is on record as 35,900 L · mol^−1 · cm^−1.

Regarding `CC1(C)Nc2cccc3c(N=Nc4ccc(N=Nc5ccccc5F)c5ccccc45)ccc(c23)N1` [(1-31)], the Absorption maximum wavelength was determined as 619 nm and the “Molar light absorption coefficient” value was 35,000 L · mol^−1 · cm^−1.

For the compound `CC1(Cc2ccccc2)Nc2cccc3c(N=Nc4ccc(N=Nc5ccccc5Cl)c5ccccc45)ccc(c23)N1` (centres unmarked) [(1-64)], the Absorption maximum wavelength was determined as 631 nm and the “Molar light absorption coefficient” value is 36,800 L · mol^−1 · cm^−1.

On to `CC1(CC#N)Nc2cccc3c(N=Nc4ccc(N=Nc5ccccc5Cl)c5ccccc45)ccc(c23)N1` (centres unmarked) [(1-61)], for which the Absorption maximum wavelength is on record as 604 nm and the “Molar light absorption coefficient” value is 34,100 L · mol^−1 · cm^−1.
